Consider three molecules from US12613239B2, “Live imaging system to visualize the retro-transcribed viral DNA genome” (priority 2019, dated 2026).

For test [1], the system named is HIV-1 ANCH3 (HIV-1ΔEnvINHAΔNef ANCH3/VSV-G). The class given is cell-based.
Test [2] has as its system lentiviral particles pseudotyped with Spike from SARS-CoV2 (S-LV-ANCH3). Type of test: cell-based.
In test [3] the test system is HIV-1 CA and IN association. Type of test: cell-based. The settings on record: 24 h.
The next test concerns the target viral CA (Human immunodeficiency virus type 1 group M subtype B, UniProt P04591). Conditions: cited from earlier work.
For another test, the system named is HIV-1 viral RNA. The class given is cell-based. The settings on record: 24 h.

Read-outs that look alike come from different tables or passages of the source.

Consider `Cc1ccnc2c1NC(=O)c1cccnc1N2C1CC1` [NEV, nevirapine], for which the “Intranuclear spots counted in 20 cells” value in test [1] stood at 0 detections.

In the case of `CCN(CCO)CCCC(C)Nc1ccnc2cc(Cl)ccc12` (stereo not shown) [hydroxychloroquine], in test [2], the “Viral entry of S-LV-ANCH3” value was “inhibit viral entry”.

As for `Cc1[nH]c2ccccc2c1CC(=O)N[C@@H](Cc1ccccc1)C(=O)N(C)c1ccccc1` [PF74], in test [1], the “Detection of viral DNA inside the nucleus” value is “detect the viral DNA inside the nucleus only in the absence of PF74”. In test [1], the Viral nuclear entry result is “blocked viral nuclear entry”. Further, the “Association between CA and IN” value was “lost” in test [3] (high dose of PF74 (10 μM)) and “preserved to levels comparable to samples without drug at 6 h post infection” in test [3] (low dose of PF74 (1.25 μM)). Also, the “Mechanism at high concentration” value at viral CA was “accelerates uncoating and blocks reverse transcription”. Moreover, the “Mechanism at low concentration” value at viral CA is given as “directly competes with the binding of host viral partners”. The “Viral RNA of the incoming cores” value in the test with HIV-1 viral RNA (high dose of PF74 (10 μM)) is recorded as “completely degraded”; with HIV-1 viral RNA (low dose of PF74 (1.25 μM)) it was “not completely degraded”.
